Measurements: patent EP1916301A1, “METHOD FOR […] USING MOLECULE ON THE RB PATHWAY AS INDEX AND MOLECULAR […]” (BANYU PHARMACEUTICAL CO., LTD., priority 2005, dated 2007)

Assays:
U-2 OS cell = assay: Cell cycle analysis by flow cytometry (DNA staining) after doxorubicin treatment; format: cell-based; details: for cell cycle arrest: 10 nM doxorubicin
Procedure: (§1) First, the U-2 OS cell and U-2 OS shRb cell were treated with 10 nM doxorubicin. The cells were collected after 24 hours and 48 hours, and the DNA of the cells were stained with the Cycle TESTTM PLUS DNA Reagent Kit (Becton Dickinson), and an analysis was carried out by flow cytometry.
(§2) Further, in what phase the respective cells were maintained in the cell cycle under the respective conditions is shown in Table 2. (Table 2)

U-2 OS shRb cell = assay: Cell cycle analysis by flow cytometry (DNA staining) after doxorubicin treatment, Rb knockdown cell; format: cell-based
Procedure: Into U-2 OS cells with wild-type Rb, pSuperior-puro.shRb vector was transfected using Funege 6. After the transfected cells were cultured for 24 hours, the cells were cultured such that the number of cells became about one fiftieth, and then, the cells were cultured for about two weeks in the presence of 1.0 µg/mL of puromycin. A cell that formed a colony was isolated by a cylinder cloning method. Hereinafter, the established Rb knockdown cell was referred to as U-2 OS shRb.
as §1, §2

[1] = 10 nM doxorubicin for 24 hours, cell having only a vector introduced (Fig. 4)
[2] = 10 nM doxorubicin for 48 hours, cell having only a vector introduced (Fig. 5)
[3] = 10 nM doxorubicin for 24 hours, cell having an Rb shRNA introduced (Fig. 7)
[4] = 10 nM doxorubicin for 48 hours, cell having an Rb shRNA introduced (Fig. 8)

## COc1cccc2c1C(=O)c1c(O)c3c(c(O)c1C2=O)C[C@@](O)(C(=O)CO)C[C@@H]3O[C@H]1C[C@H](N)[C@H](O)[C@H](C)O1 [doxorubicin]
U-2 OS cell; [1]
  G1 (%): 20%
  G2/M (%): 68%
  S (%): 11%
U-2 OS cell; [2]
  G1 (%): 29%
  G2/M (%): 66%
  S (%): 5.4%
U-2 OS cell; at 24 hours after the treatment
  cell cycle arrest: arrested in the G2/M phase
U-2 OS cell; at 48 hours after the treatment
  cell cycle arrest: arrested in the G2/M phase
U-2 OS shRb cell; [3]
  G1 (%): 35%
  G2/M (%): 45%
  S (%): 19%
U-2 OS shRb cell; [4]
  G1 (%): 62%
  G2/M (%): 23%
  S (%): 16%
U-2 OS shRb cell; 10 nM doxorubicin, at 24 hours after the treatment
  cell cycle arrest: arrested in the G2/M phase
U-2 OS shRb cell; 10 nM doxorubicin, at 48 hours after the treatment
  G2/M phase arrest: not maintained
